In paper PMC7739374 (ACS chemical biology, 2020):
Where a SMILES comes first, the peptide text is derived from it. [ ]: non-standard residue; d: D form. β3hI = CC[C@H](C)[C@H](N)CC(=O)O; β3hE = N[C@@H](CCC(=O)O)CC(=O)O; β3hA = C[C@H](N)CC(=O)O

Columns and labels:
[1] = system: Ras activation and ERK signaling; conditions: cited from earlier work
[2] = system: recombinant H-Ras; conditions: within range of full-length Sos; cited from earlier work
[3] = Tryptic digestion, HPLC-based proteolytic stability assay; format: in vitro ADME
[4] = system: H358 (K-Ras G12C) lung cancer cells; assay: MTT cell viability; format: cell-based; conditions: 72 hours
[5] = system: proteinase K; format: in vitro ADME
[6] = system: trypsin; assay: Tryptic digestion, HPLC-based proteolytic stability assay; format: in vitro ADME

| SMILES | modulation of Ras activation and ERK signaling [1] | affinity for recombinant H-Ras [2] | half-life ([3]; trypsin) [h] | effect on cell viability, H358 [4] | fold increase in half-life with proteinase K [5] [fold] | fold increase in half-life, tryptic digestion [6] | half-life ([3]; isolated enzyme trypsin) [h] |
| --- | --- | --- | --- | --- | --- | --- | --- |
| CC[C@H](C)[C@H](NC(=O)CN1C/C=C/CCC(=O)N[C@@H](Cc2ccccc2)C(=O)N[C@@H](CCC(=O)O)C1=O)C(=O)N[C@@H](Cc1ccc(O)cc1)C(=O)N[C@@H](CCCNC(=N)N)C(=O)N[C@@H](CC(C)C)C(=O)N[C@@H](CCC(=O)O)C(=O)N[C@@H](CC(C)C)C(=O)N[C@@H](CC(C)C)C(=O)N[C@@H](CCCCN)C(=O)N[C@@H](C)C(=O)N[C@@H](CCC(=O)O)C(=O)N[C@@H](CCC(=O)O)C(=O)N[C@@H](C)C(=O)N[C@@H](CC(N)=O)C(N)=O [HBSSOS] | concentration-dependent manner | micromolar affinity | 3.1 |  |  |  |  |
| CC[C@H](C)[C@@H](CC(=O)N[C@@H](Cc1ccc(O)cc1)C(=O)N[C@@H](CCCNC(=N)N)C(=O)N[C@@H](CC(C)C)C(=O)N[C@@H](CCC(=O)O)CC(=O)N[C@@H](CC(C)C)C(=O)N[C@@H](CC(C)C)C(=O)N[C@@H](CCCCN)C(=O)N[C@@H](C)CC(=O)N[C@@H](CCC(=O)O)C(=O)N[C@@H](CCC(=O)O)C(=O)N[C@@H](C)C(=O)N[C@@H](CC(N)=O)C(N)=O)NC(=O)CN1C/C=C/CCCC(=O)N[C@@H](Cc2ccccc2)C(=O)N[C@@H](CCC(=O)O)C1=O [α3βHBSSOS] |  |  |  | impacts viability of H358 cells at higher concentrations | 360 | ~ 6 fold | 17.6 |
| CC[C@H](C)[C@@H](CC(=O)N[C@@H](Cc1ccc(O)cc1)C(=O)N[C@@H](CCCNC(=N)N)C(=O)N[C@@H](CC(C)C)C(=O)N[C@@H](CCC(=O)O)CC(=O)N[C@@H](CC(C)C)C(=O)N[C@@H](CC(C)C)C(=O)N[C@@H](CCCCN)C(=O)N[C@@H](C)CC(=O)N[C@@H](CCC(=O)O)C(=O)N[C@@H](CCC(=O)O)C(=O)N[C@@H](C)C(=O)N[C@@H](CC(N)=O)C(N)=O)NC(=O)CNC(=O)[C@H](CCC(=O)O)NC(=O)[C@H](Cc1ccccc1)NC(C)=O [α3βUNCSOS] (Ac-FEG[β3hI]YRL[β3hE]LLK[β3hA]EEAN-NH2; N-terminus and C-terminus assumed) |  |  |  |  |  | 8.5 fold | 13.6 |
| CC[C@H](C)[C@H](NC(=O)CNC(=O)[C@H](CCC(=O)O)NC(=O)[C@H](Cc1ccccc1)NC(C)=O)C(=O)N[C@@H](Cc1ccc(O)cc1)C(=O)N[C@@H](CCCNC(=N)N)C(=O)N[C@@H](CC(C)C)C(=O)N[C@@H](CCC(=O)O)C(=O)N[C@@H](CC(C)C)C(=O)N[C@@H](CC(C)C)C(=O)N[C@@H](CCCCN)C(=O)N[C@@H](C)C(=O)N[C@@H](CCC(=O)O)C(=O)N[C@@H](CCC(=O)O)C(=O)N[C@@H](C)C(=O)N[C@@H](CC(N)=O)C(N)=O [αUNCSOS] (Ac-FEGIYRLELLKAEEAN-NH2; N-terminus and C-terminus assumed) |  |  | 1.6 |  |  |  |  |
